Data from PMC6199744, “Development of Chemical Proteomics for the Folateome and Analysis of the Kinetoplastid Folateome” (ACS Infectious Diseases, 2018).
Read-outs that look alike come from different tables or passages of the source.

How the values were obtained:
Format in all cases: binding
[1] = target: T1, HeLa cell extract proteins (Homo sapiens, UniProt O95163)
T1 construct: endogenous in cells; host or cells: HeLa cell extract
T1 sequence (O95163 1-1332): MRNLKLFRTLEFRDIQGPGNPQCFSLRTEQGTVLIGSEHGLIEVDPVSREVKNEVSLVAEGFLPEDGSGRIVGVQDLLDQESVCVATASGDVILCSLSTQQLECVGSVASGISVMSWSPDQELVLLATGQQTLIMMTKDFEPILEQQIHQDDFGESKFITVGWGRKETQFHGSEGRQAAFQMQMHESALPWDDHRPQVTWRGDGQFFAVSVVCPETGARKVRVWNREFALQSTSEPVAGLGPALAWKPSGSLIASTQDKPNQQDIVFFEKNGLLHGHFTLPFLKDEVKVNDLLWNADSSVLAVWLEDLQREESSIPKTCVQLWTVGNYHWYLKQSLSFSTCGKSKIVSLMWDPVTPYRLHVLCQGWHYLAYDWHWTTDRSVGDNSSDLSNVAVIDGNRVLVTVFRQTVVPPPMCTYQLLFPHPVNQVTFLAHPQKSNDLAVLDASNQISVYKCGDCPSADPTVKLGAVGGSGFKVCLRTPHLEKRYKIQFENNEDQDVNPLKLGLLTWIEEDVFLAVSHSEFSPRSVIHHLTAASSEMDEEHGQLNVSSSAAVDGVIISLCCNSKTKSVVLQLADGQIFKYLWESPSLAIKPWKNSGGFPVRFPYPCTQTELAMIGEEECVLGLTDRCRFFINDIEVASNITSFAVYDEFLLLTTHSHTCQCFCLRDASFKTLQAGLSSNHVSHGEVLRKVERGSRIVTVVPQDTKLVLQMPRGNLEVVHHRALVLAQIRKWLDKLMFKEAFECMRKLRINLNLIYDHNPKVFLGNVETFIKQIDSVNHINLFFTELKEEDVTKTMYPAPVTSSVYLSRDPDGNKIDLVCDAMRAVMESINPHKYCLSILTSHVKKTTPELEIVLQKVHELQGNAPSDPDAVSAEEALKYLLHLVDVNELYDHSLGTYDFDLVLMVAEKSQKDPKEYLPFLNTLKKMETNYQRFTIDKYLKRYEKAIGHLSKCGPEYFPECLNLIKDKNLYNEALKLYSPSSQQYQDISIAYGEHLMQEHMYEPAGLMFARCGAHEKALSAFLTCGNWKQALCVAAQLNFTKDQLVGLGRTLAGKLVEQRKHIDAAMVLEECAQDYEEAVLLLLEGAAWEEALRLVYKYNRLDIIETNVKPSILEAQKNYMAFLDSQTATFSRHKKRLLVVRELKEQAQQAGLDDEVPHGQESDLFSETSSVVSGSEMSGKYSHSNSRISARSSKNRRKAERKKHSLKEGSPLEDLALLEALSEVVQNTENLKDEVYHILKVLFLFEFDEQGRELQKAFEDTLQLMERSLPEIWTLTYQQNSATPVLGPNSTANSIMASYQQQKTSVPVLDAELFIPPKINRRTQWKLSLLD

[2] = target: T2, HeLa cell extract proteins (Homo sapiens, UniProt P49327)
T2 construct: endogenous in cells; host or cells: HeLa cell extract

[3] = target: T3, HeLa cell extract proteins (Homo sapiens, UniProt Q6YHU6)
T3 construct: endogenous in cells; host or cells: HeLa cell extract

[4] = target: T4, HeLa cell extract proteins (Homo sapiens, UniProt Q99439)
T4 construct: endogenous in cells; host or cells: HeLa cell extract
T4 sequence (Q99439 1-309): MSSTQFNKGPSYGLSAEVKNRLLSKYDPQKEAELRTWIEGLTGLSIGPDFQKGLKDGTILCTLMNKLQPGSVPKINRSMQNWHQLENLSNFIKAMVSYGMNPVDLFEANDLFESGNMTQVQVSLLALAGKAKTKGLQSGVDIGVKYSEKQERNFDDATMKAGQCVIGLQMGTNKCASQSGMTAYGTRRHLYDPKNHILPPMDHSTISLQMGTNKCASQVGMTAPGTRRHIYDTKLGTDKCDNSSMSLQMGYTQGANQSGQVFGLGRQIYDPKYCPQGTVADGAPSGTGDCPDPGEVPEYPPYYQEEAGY

[5] = target: T5, HeLa cell extract proteins (Homo sapiens, UniProt P49411)
T5 construct: endogenous in cells; host or cells: HeLa cell extract

[6] = target: T6, HeLa cell extract proteins (Homo sapiens, UniProt P17812)
T6 construct: endogenous in cells; host or cells: HeLa cell extract
T6 sequence (P17812 1-591): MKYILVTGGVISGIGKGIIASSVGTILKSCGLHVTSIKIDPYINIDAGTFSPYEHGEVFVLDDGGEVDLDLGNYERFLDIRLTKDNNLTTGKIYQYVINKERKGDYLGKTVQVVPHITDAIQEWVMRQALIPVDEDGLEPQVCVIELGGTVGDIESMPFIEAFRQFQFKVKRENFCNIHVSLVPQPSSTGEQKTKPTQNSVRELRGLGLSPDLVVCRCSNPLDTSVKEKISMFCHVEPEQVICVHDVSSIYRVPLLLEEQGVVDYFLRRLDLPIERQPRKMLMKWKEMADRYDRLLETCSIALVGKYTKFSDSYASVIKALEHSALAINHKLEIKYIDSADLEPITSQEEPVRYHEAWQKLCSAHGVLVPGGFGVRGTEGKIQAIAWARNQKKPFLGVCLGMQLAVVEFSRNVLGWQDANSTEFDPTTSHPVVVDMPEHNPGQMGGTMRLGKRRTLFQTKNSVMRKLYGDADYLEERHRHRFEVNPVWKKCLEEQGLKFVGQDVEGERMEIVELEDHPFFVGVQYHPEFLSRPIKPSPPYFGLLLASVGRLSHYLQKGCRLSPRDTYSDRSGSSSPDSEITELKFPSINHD

[7] = target: T7, HeLa cell extract proteins (Homo sapiens, UniProt Q9UKU7)
T7 construct: endogenous in cells; host or cells: HeLa cell extract
T7 sequence (Q9UKU7 23-415): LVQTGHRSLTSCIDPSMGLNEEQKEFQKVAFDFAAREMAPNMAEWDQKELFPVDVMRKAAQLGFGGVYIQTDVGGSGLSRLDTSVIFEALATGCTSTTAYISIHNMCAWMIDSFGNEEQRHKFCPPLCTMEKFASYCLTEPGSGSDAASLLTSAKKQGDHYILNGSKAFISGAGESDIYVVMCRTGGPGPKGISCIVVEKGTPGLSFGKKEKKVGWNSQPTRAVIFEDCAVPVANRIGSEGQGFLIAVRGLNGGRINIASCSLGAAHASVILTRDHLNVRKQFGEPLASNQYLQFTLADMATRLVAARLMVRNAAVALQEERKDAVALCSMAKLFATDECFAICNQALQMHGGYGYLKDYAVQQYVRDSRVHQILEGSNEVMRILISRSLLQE

T3 sequence (Q6YHU6 whole entry): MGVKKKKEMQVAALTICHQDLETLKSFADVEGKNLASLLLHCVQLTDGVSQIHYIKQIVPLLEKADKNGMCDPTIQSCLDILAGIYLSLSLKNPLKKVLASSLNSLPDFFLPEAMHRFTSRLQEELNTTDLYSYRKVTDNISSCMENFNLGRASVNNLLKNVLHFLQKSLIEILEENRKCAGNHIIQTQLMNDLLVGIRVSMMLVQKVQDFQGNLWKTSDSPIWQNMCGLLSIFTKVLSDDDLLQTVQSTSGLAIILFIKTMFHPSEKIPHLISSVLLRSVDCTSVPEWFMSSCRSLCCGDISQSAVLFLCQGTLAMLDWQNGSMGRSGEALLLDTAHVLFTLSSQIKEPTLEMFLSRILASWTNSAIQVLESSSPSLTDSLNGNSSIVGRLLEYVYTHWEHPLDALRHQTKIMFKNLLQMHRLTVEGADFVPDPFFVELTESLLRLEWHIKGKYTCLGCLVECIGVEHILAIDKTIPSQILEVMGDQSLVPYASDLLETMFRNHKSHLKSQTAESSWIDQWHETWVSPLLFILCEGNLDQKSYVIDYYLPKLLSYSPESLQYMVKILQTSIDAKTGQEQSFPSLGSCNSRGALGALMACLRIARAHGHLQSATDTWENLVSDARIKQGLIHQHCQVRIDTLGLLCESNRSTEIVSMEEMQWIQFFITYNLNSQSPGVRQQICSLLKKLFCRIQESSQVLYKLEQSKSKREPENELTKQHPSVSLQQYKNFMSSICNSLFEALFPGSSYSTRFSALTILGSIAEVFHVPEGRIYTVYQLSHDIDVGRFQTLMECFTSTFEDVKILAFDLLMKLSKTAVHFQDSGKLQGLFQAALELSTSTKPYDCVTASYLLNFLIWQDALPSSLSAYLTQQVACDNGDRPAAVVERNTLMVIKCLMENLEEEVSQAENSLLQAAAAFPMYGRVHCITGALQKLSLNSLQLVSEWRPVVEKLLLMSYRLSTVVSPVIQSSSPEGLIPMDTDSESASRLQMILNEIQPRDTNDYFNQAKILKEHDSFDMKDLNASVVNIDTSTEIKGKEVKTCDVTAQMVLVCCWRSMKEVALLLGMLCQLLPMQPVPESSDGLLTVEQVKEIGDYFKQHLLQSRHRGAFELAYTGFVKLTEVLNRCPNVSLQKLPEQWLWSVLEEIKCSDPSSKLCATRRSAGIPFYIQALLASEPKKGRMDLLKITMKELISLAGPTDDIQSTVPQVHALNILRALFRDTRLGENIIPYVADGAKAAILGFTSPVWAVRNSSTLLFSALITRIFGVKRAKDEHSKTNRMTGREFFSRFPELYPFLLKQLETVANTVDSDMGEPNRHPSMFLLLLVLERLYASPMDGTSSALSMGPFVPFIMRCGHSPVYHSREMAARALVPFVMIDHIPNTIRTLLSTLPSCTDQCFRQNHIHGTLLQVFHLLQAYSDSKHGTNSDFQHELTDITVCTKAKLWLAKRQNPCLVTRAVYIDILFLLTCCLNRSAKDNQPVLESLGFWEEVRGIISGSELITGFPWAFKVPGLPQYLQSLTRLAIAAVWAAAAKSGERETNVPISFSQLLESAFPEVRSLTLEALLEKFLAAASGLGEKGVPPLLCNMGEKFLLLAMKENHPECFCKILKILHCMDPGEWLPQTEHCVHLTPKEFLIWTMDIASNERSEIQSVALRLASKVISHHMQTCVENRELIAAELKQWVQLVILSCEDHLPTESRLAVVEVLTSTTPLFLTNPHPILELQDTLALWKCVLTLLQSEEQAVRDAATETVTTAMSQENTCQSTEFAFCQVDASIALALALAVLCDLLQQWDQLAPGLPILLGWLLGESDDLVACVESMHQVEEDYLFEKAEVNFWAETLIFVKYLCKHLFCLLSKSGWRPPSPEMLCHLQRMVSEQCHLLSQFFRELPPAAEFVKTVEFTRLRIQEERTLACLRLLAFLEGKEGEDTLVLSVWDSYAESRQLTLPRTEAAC
T2 sequence (P49327 whole entry): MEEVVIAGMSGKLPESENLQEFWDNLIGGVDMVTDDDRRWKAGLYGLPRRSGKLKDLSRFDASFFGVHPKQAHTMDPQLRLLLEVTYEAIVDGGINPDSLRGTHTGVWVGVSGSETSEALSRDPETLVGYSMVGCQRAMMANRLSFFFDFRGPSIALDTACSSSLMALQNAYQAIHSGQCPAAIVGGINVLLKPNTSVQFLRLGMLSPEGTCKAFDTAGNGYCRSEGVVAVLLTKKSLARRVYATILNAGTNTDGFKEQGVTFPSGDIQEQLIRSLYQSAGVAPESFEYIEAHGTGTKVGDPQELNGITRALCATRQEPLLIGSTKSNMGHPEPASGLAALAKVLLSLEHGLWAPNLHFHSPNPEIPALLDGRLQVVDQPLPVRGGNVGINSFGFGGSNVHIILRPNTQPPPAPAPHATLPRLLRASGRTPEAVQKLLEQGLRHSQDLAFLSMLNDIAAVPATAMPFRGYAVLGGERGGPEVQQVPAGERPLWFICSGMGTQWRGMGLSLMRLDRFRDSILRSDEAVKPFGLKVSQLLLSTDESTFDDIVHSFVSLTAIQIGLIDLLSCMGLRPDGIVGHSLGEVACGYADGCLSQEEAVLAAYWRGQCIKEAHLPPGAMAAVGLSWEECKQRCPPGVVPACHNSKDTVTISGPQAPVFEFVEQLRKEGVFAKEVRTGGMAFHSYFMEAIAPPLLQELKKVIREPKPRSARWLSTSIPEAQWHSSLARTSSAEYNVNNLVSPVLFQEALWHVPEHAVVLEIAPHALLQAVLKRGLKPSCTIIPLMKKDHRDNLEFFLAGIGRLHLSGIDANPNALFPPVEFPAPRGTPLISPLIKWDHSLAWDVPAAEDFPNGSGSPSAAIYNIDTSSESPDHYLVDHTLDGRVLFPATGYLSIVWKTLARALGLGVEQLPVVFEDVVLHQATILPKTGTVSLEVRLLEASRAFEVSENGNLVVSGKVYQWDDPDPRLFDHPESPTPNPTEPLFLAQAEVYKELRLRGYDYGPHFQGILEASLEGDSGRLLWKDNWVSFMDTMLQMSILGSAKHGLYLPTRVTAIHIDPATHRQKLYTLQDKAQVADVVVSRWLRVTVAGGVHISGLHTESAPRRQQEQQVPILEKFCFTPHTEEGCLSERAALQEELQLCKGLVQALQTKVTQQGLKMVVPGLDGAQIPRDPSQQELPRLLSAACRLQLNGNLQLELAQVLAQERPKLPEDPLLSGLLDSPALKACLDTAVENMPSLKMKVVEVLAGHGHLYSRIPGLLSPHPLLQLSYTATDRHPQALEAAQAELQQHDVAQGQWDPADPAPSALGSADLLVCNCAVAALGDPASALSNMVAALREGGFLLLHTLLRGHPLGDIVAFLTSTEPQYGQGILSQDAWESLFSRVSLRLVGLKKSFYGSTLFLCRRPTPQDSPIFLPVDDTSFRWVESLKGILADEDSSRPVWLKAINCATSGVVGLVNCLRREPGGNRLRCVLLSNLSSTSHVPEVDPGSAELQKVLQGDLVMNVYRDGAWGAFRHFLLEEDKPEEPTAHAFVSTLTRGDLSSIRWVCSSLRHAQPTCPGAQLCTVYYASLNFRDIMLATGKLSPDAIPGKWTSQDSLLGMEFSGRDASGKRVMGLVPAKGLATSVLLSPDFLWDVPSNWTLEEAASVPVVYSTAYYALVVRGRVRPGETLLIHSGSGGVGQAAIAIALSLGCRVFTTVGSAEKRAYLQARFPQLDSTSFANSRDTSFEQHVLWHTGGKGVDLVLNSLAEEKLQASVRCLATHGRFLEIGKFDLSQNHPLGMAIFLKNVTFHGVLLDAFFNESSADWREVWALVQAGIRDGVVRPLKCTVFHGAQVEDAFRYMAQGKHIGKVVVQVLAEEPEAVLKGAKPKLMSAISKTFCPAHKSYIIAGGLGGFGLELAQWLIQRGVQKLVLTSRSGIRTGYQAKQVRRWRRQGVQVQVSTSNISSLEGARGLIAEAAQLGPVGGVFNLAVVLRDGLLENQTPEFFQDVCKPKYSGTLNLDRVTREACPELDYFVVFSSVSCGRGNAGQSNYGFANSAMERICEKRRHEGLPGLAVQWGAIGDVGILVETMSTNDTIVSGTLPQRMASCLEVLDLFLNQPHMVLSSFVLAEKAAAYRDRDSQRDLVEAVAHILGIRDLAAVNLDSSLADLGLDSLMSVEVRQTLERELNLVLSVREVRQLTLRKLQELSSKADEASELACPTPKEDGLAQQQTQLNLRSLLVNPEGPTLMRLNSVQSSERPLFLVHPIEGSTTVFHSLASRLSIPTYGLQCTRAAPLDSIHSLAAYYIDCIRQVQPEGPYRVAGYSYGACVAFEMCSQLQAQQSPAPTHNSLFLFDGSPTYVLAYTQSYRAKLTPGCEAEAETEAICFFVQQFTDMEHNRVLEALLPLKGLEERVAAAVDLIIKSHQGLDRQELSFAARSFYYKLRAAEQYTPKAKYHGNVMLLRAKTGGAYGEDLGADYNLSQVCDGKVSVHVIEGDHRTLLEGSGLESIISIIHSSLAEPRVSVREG

| Compound | fold changes relative to vehicle control ([1]; HeLa, captured protein IKBKAP) | fold changes relative to vehicle control ([2]; HeLa, captured protein FASN) | fold changes relative to vehicle control ([3]; HeLa, captured protein THADA) | fold changes relative to vehicle control ([4]; HeLa, captured protein CNN2) | fold changes relative to vehicle control ([5]; protein TUFM, HeLa) | fold changes relative to vehicle control ([6]; HeLa, protein CTPS) | fold changes relative to vehicle control ([7]; HeLa, protein ACAD8) | fold changes relative to vehicle control [1] | fold changes relative to vehicle control [2] | fold changes relative to vehicle control [3] | fold changes relative to vehicle control [4] | fold changes relative to vehicle control [5] | fold changes relative to vehicle control [6] | fold changes relative to vehicle control [7] | fold changes relative to vehicle control ([1]; protein IKBKAP, HeLa) | fold changes relative to vehicle control ([2]; protein FASN, HeLa) | fold changes relative to vehicle control ([3]; captured protein THADA, HeLa) | fold changes relative to vehicle control ([4]; HeLa, protein CNN2) | fold changes relative to vehicle control ([7]; protein ACAD8, HeLa) |
| --- | --- | --- | --- | --- | --- | --- | --- | --- | --- | --- | --- | --- | --- | --- | --- | --- | --- | --- | --- |
| Nc1nc2c(c(=O)[nH]1)N(C=O)C(CNc1ccc(C(=O)N[C@@H](CCC(=O)O)C(=O)O)cc1)CN2 (stereo partly shown) [LEU, leucovorin] | 1.15 | 1.13 | 1.06 | 0.97 | 0.93 | 0.93 | 0.79 |  |  |  |  |  |  |  |  |  |  |  |  |
| Nc1nc2[nH]cc(CCc3ccc(C(=O)N[C@@H](CCC(=O)O)C(=O)O)cc3)c2c(=O)[nH]1 [PTX, pemetrexed] |  |  |  |  |  |  |  | 1.11 | 1.09 | 0.98 | 0.96 | 0.97 | 0.85 | 0.83 |  |  |  |  |  |
| CCCCCCOc1ccc(Cc2cnc(N)nc2N)cc1 [compound 1] |  |  |  |  | 1.18 | 0.99 |  |  |  |  |  |  |  |  | 1.33 | 1.07 | 1.06 | 0.81 | 1.11 |
| CCCCCCOc1cccc(Cc2cnc(N)nc2N)c1 [compound 2] |  |  |  |  | 1.68 | 1.09 |  |  |  |  |  |  |  |  | 1.3 | 1.25 | 1.16 | 0.95 | 1.19 |
| Nc1nc2cccc(-c3ccccc3)c2n1Cc1ccc(Cl)c(Cl)c1 [compound 3] |  |  |  |  | 0.92 | 0.95 |  |  |  |  |  |  |  |  | 1.12 | 1.17 | 1.09 | 1.07 | 1.13 |
| NCCOCCOCC(=O)Nc1nc2ncc(CNc3ccc(C(=O)NC(CCC(=O)O)C(=O)O)cc3)nc2c(=O)[nH]1 (stereo not shown) [compound 6] | 1.2 | 1.2 | 1.11 | 0.93 | 1.07 | 0.95 | 0.75 |  |  |  |  |  |  |  |  |  |  |  |  |
| NCCCNc1ccc(C(=O)NC(CCC(=O)O)C(=O)O)cc1 (stereo not shown) [compound 7] | 1.01 | 1.2 | 1.12 | 1.33 | 0.88 | 0.98 | 0.77 |  |  |  |  |  |  |  |  |  |  |  |  |
